Laboratory results reported in patent US4535075A, “Dithiolane derivative, process for producing the same and use thereof” (Nihon Nohyaku Co., Ltd., priority 1982, dated 1985).

Assays:
[1] = tested on: liver damage induced by carbon tetrachloride; test: Protective (Controlling) effect on liver damage induced by carbon tetrachloride; assay type: in vivo, mice (dd strain); conditions: 250 mg/kg p.o., CCl4 0.05 ml/kg after 6 h, 24 h; for p-GPT: CCl4 alone >2,100; for Liver Damage Index: average of 5 mice, 0 Normal, 2 Slightly recognized, 4 Clearly observable damage, 6 Heavy damage, CCl4 alone 5.0
Text: Protective (Controlling) Effect on liver damage induced by carbon tetrachloride.
Carbon tetrachloride administration induces centrilobular necrosis of the liver associated with loss of diphosphopyridine nucleotide, hepatic glycogen, coenzyme A and increase in neutral fat. Release of several enzymes from the hepatocytes, and increases of enzyme activities in the plasma are recognized as the result of the damage of the liver.
A suitable means for evaluating the degree induced by carbon tetrachloride or the degree of protection afforded by drugs is to study the plasma glutamic-pyruvic transaminase (p-GPT) activity. […]
After 6 hours, carbon tetrachloride was administered orally 0.05 ml/kg.
Animals were killed 24 hours after carbon tetrachloride administration, and the liver was grossly observed.
The plasma was obtained by centrifugation. Activity of p-GPT were determined by the method of Reitman and Frankel and expressed in Karmen units.
Score for liver damage index was as follows:
1 Each figure indicated average of 5 mice.

[2] = tested on: liver damage induced by α-naphthyl isothiocyanate (ANIT); test: Protective effect on liver damage induced by ANIT (Method 2); assay type: in vivo, mice (dd strain); conditions: 250 mg/kg p.o., ANIT 35 mg/kg p.o. after 6 h, 24 h
Experimental: (§1) Protective effect on liver damage induced by α-naphthyl isothiocyanate (referred to as "ANIT", hereinafter).
Test compounds, dissolved or suspended in olive oil or diethyleneglycol, were orally administered at the dose of 250 mg/kg to the mice (Six or Seven-week-old male mice-dd strain).
After 6 hours, ANIT dissolved in olive oil, was aministered orally at 35 mg/kg.
Mice were sacrificed at 24 hours after ANIT administration and blood samples were collected. The blood samples were centrifuged and plasma was obtained.
Plasma GPT activity and alkaline phosphatase activity were determined by Reitman & Frankel's method and Bessey-Lowry's method, respectively.
The activity was expressed with Karmen Unit and Bessey-Lowry Unit, respectively.

[3] = tested on: liver damage induced by α-naphthyl isothiocyanate (ANIT); test: Protective effect on liver damage induced by ANIT (Method 1); assay type: in vivo, mice; conditions: 2 x 250 mg/kg p.o., ANIT 35 mg/kg p.o., 24 h
Text: as §1
It is well known that experimental cholestasis is accomplished by administration with ANIT in mice and rats, and studied as a cholestasis model in human being.
ANIT and CCl4 induce necrosis in the liver. ANIT causes it as small focci in perilobular parenchyna and CCl4 causes centrilobular parenchymal coagulation necrosis.
From these information, the elevation of plasma GPT activity in these models are thought to have defferent characteristics.
Test compounds, dissolved or suspended in olive oil or diethyleneglycol, were orally administered 2 times at intervals of 3 hrs to mice at the dose of 250 mg/kg. At 3 hrs after the second administration with test compounds, ANIT was administered orally at 35 mg/kg.
Mice were sacrificed at 24 hrs after ANIT administration and blood samples were collected. The blood samples were centrifuged and plasma was obtained.
Plasma GPT activity and alkaline phosphatase activity were determined by Reitman & Frankel's method and Bessey-Lowry's method, respectively. The activity was expressed with Karmen Unit and Bessey-Lowry Unit, respectively.

[4] = Table 3-3, control 2.9, ANIT alone >9.6
[5] = Table 3-3, control 17.5, ANIT alone >460.2
[6] = Table 3-1, control 3.3, ANIT alone 5.3
[7] = Table 3-1, control 7.4, ANIT alone 324.0

| Structure (SMILES) | p-GPT [1] [Karmen units] | Liver Damage Index [1] | also measured |
| --- | --- | --- | --- |
| CC(=O)C(C(=O)OCCC(C)C)=C1SC(O)C(O)S1 (centres unmarked) [Compound 43] | 36 | 0.2 | Alkaline phosphatase activity [2, 4]: 5.9 B-L.V.; p-GPT [2, 5]: 298.9 K.U. |
| C#CCOC(=O)C(C(C)=O)=C1SC(O)C(O)S1 (centres unmarked) [Compound 46] | 16 | 0.0 | Alkaline phosphatase activity [2, 4]: 5.3 B-L.V.; p-GPT [2, 5]: 29.9 K.U. |
| O=C(OC1CCCCC1)C(C(=O)OC1CCCCC1)=C1SC(O)C(O)S1 (centres unmarked) [Compound 10] | 72 | 0.0 | Alkaline phosphatase activity ([3]; Table 3-2, ANIT alone 5.3): 4.9 B-L.V.; p-GPT ([3]; Table 3-2, ANIT alone >653.7): 363.7 K.U. |
| CCC(COC)OC(=O)C(C(=O)OC(CC)COC)=C1SC(O)C(O)S1 (centres unmarked) [Compound 16] | 30 | 0.2 | Alkaline phosphatase activity ([3]; Table 3-2, ANIT alone 5.3): 5.0 B-L.V.; p-GPT ([3]; Table 3-2, ANIT alone >653.7): 275.2 K.U. |
| C#CCOC(=O)C(C(=O)OCC#C)=C1SC(O)C(O)S1 (centres unmarked) [Compound 13] | 30 | 0.0 | Alkaline phosphatase activity ([3]; Table 3-2, ANIT alone 5.3): 4.5 B-L.V.; p-GPT ([3]; Table 3-2, ANIT alone >653.7): 265.6 K.U. |
| CC(=O)C(C(=O)OC(C)C)=C1SC(O)C(O)S1 (centres unmarked) [Compound 37, isopropyl 4,5-dihydroxy-1,3-dithiolan-2-ylideneacetoacetate] | 149 | 0.4 | Alkaline phosphatase activity [2, 4]: 4.4 B-L.V.; p-GPT [2, 5]: 177.4 K.U. |
| CC(=O)C(C(=O)OC(C)(C)C)=C1SC(O)C(O)S1 (centres unmarked) [Compound 41] | 105 | 0.6 | Alkaline phosphatase activity [2, 4]: 6.0 B-L.V.; p-GPT [2, 5]: 132.7 K.U. |
| CCC(C)OC(=O)C(C(=O)OC(C)CC)=C1SC(O)C(O)S1 (centres unmarked) [Compound 6] | 21 | 0.0 | Alkaline phosphatase activity [3, 6]: 4.9 B-L.V.; p-GPT [3, 7]: 142.0 K.U. |
| CC(=O)C(C(=O)OC1CCCCC1)=C1SC(O)C(O)S1 (centres unmarked) [Compound 44] | 73 | 0.4 | Alkaline phosphatase activity [2, 4]: 5.1 B-L.V.; p-GPT [2, 5]: 140.2 K.U. |
| COCCOC(=O)C(C(=O)OCCOC)=C1SC(O)C(O)S1 (centres unmarked) [Compound 14] | 56 | 0.2 | Alkaline phosphatase activity ([3]; Table 3-2, ANIT alone 5.3): 3.1 B-L.V.; p-GPT ([3]; Table 3-2, ANIT alone >653.7): 11.5 K.U. |
| CC(C)COC(=O)C(C(=O)OC(C)C)=C1SC(O)C(O)S1 (centres unmarked) [Compound 22] | 9 | 0.0 | Alkaline phosphatase activity [3, 6]: 5.0 B-L.V.; p-GPT [3, 7]: 221.0 K.U. |
| CCCCC(=O)C(C(=O)OCC)=C1SC(O)C(O)S1 (centres unmarked) [Compound 52] | 25 | 0.4 | Alkaline phosphatase activity ([2]; Table 3-4, control 3.7, ANIT alone 4.5): 3.8 B-L.V.; p-GPT ([2]; Table 3-4, control 11.3, ANIT alone 300.3): 24.1 K.U. |
| CCCCOC(=O)C(C(=O)OCCCC)=C1SC(O)C(O)S1 (centres unmarked) [Compound 4] | 18 | 0.0 | Alkaline phosphatase activity [3, 6]: 3.3 B-L.V.; p-GPT [3, 7]: 26.8 K.U. |
| CCCCOC(=O)C(C(=O)OCC)=C1SC(O)C(O)S1 (centres unmarked) [Compound 18] | 28 | 0.0 | Alkaline phosphatase activity [3, 6]: 4.8 B-L.V.; p-GPT [3, 7]: 180.8 K.U. |
| CCCOC(=O)C(C(=O)OC(C)C)=C1SC(O)C(O)S1 (centres unmarked) [Compound 20] | 30 | 0.4 | Alkaline phosphatase activity [3, 6]: 4.0 B-L.V.; p-GPT [3, 7]: 163.4 K.U. |
| CCOC(=O)C(C(=O)OCC(C)C)=C1SC(O)C(O)S1 (centres unmarked) [Compound 19] | 9 | 0.4 | Alkaline phosphatase activity [3, 6]: 5.1 B-L.V.; p-GPT [3, 7]: 170.5 K.U. |
| CC(C)CCOC(=O)C(C(=O)OCCC(C)C)=C1SC(O)C(O)S1 (centres unmarked) [Compound 9] | 47 | 0.0 | Alkaline phosphatase activity ([3]; Table 3-2, ANIT alone 5.3): 3.4 B-L.V.; p-GPT ([3]; Table 3-2, ANIT alone >653.7): 27.2 K.U. |
| CCCCOC(=O)C(C(=O)OC(C)C)=C1SC(O)C(O)S1 (centres unmarked) [Compound 21] | 9 | 0.0 | Alkaline phosphatase activity [3, 6]: 4.5 B-L.V.; p-GPT [3, 7]: 293.1 K.U. |

| Structure (SMILES) | p-GPT [1] [Karmen units] | Liver Damage Index [1] | also measured |
| --- | --- | --- | --- |
| CCCOC(=O)C(C(=O)OCC)=C1SC(O)C(O)S1 (centres unmarked) [Compound 17] | 40 | 0.6 | Alkaline phosphatase activity [3, 6]: 4.8 B-L.V.; p-GPT [3, 7]: 242.0 K.U. |
| COCC(C)OC(=O)C(C(=O)OC(C)COC)=C1SC(O)C(O)S1 (centres unmarked) [Compound 15, bis(3-methoxypropan-2-yl)4,5-dihydroxy-1,3-dithiolan-2-ylidenemalonate] | 39 | 0.0 | Alkaline phosphatase activity ([3]; Table 3-2, ANIT alone 5.3): 3.7 B-L.V.; p-GPT ([3]; Table 3-2, ANIT alone >653.7): 134.5 K.U. |
| O=C(OCc1ccccc1)C(C(=O)OCc1ccccc1)=C1SC(O)C(O)S1 (centres unmarked) [Compound 11] | 33 | 0.0 | Alkaline phosphatase activity ([3]; Table 3-2, ANIT alone 5.3): 4.3 B-L.V.; p-GPT ([3]; Table 3-2, ANIT alone >653.7): 437.5 K.U. |
| CC(C)(C)OC(=O)C(C(=O)OC(C)(C)C)=C1SC(O)C(O)S1 (centres unmarked) [Compound 7] | 90 | 0.0 | Alkaline phosphatase activity ([3]; Table 3-2, ANIT alone 5.3): 3.5 B-L.V.; p-GPT ([3]; Table 3-2, ANIT alone >653.7): 422.8 K.U. |
| CCC(C)OC(=O)C(C(=O)OC(C)CC)=C1SC2OC(=S)OC2S1 (centres unmarked) [Compound 111] | 18.6 | 0.8 | – |
| CC(C)OC(=O)C(C(=O)OC(C)C)=C1SCC(O)S1 (centres unmarked) [Compound A, reference compound] | – | – | Alkaline phosphatase activity ([3]; Table 3-2, ANIT alone 5.3): 8.5 B-L.V.; p-GPT ([3]; Table 3-2, ANIT alone >653.7): > 755.0 K.U. |
| CCCCCOC(=O)C(C(=O)OCCCCC)=C1SC2OC(=O)OC2S1 (centres unmarked) [Compound 80] | 71.1 | 0.4 | – |
| CCCOC(=O)C(C(=O)OCCC)=C1SC(OC(=O)CCC(=O)O)C(OC(=O)CCC(=O)O)S1 (centres unmarked) [Compound 68] | – | 2.0 | – |
| CCOC(=O)C(C(=O)OCC)=C1SC2OC(=S)OC2S1 (centres unmarked) [Compound 107] | 42.6 | 0.6 | – |
| CC(C)OC(=O)C(C(=O)OC(C)C)=C1SC2OC(=O)OC2S1 (centres unmarked) [Compound 75] | 19.9 | 0.2 | – |
| CCCCCOC(=O)C(C#N)=C1SC(O)C(O)S1 (centres unmarked) [Compound 30] | 116 | 0.6 | – |
| CC(=O)C(C(=O)OC(C)C)=C1SC2OC(=O)OC2S1 (centres unmarked) [Compound 89] | 26.3 | 0.4 | – |
| CCCOC(=O)C(C(C)=O)=C1SC(OC(=O)OCC)C(OC(=O)OCC)S1 (centres unmarked) [Compound 67] | 127.7 | 0.8 | – |
| CC(C)CCOC(=O)C(C(=O)OCCC(C)C)=C1SC2OC(=O)OC2S1 (centres unmarked) [Compound 81] | 108.1 | 1.2 | – |
| CC(C)(C)OC(=O)C(C(=O)OC(C)(C)C)=C1SC2OC(=O)OC2S1 (centres unmarked) [Compound 79] | 66.0 | 0.8 | – |
| CCCOC(=O)C(C(C)=O)=C1SC(OC(=O)N(C)C)C(OC(=O)N(C)C)S1 (centres unmarked) [Compound 65] | 498.7 | 1.6 | – |
| CCC(C)OC(=O)C(C(=O)OC(C)CC)=C1SC(OC(C)=O)C(OC(C)=O)S1 (centres unmarked) [Compound 60] | 203.0 | 0 | – |
